In patent US10363231B2, “Compounds and methods of treating ocular disorders” (CASE WESTERN RESERVE UNIVERSITY, priority 2014, dated 2019):

Tests used:
[1] = tested on: Abca4^−/−Rdh8^−/− mice; assay: Toxicity in treated Abca4−/−Rdh8−/− mice (Table 2); format: in vivo; conditions: 4-week-old Abca4−/−Rdh8−/− mice, oral gavage
Description: (§1) Abca4^−/−Rdh8^−/− double knockout mice were generated as previously described. Mice were housed in the animal facility at the School of Medicine, Case Western Reserve University, where they were maintained under either complete darkness or in a 12-h light (˜300 lux) and 12-h dark cycle. All tested primary amines were suspended in 100 μl of soybean oil with less than 10% (v/v) DMSO and were administered by oral gavage with a 22-gauge feeding needle. Experimental manipulations in the dark were done under dim red light transmitted through a Kodak No. 1 safelight filter (transmittance >560 nm). All animal procedures and experiments were approved by the Case Western Reserve University Animal Care Committees and conformed to recommendations of the American Veterinary Medical Association Panel on Euthanasia and the Association of Research for Vision and Ophthalmology.
(§2) For practical reasons, only eight of these leading compounds (QEA-B-001-NH2, B-002-NH2, C-001-NH2, C-003-NH2, C006-NH2, E-002-NH2, TEA-B-002-NH2, and C00-2-NH2) along with retinylamine as a control were selected for further testing in Abca4^−/−Rdh8^−/− mice, an animal model for light-induced retinal degeneration (Table 2). Additionally, two novel amines with moderate inhibition of RPE65 (QEA-A-006-NH2 and QEA-B-003-NI 12) and one with strong inhibition (QEA-A-005-NH2) were added to the first test group for comparison. Mice were gavaged with 1 mg of a test compound and then kept in the dark for 24 h prior to being exposed to bright light (˜10,000 lux) for 1 h. Retinal damage was assessed with OCT that measured the thickness of the outer nuclear layer and by quantification of tissue 11-cis retinal levels. An example is shown for imaging results in FIG. 4A and for 11-cis-retinal quantification in FIG. 4B. Additionally, extracts of livers obtained from treated mice were analyzed by HPLC to estimate the amounts of corresponding amides (FIG. 4C).

[2] = target: T1, LRAT (Bos taurus, UniProt Q9BGL2); assay: LRAT activity assay with bovine RPE microsomes (esterification of the corresponding primary alcohols); format: biochemical; conditions: percentage of the corresponding primary alcohol esterified by LRAT in 1 h at 37° C; 10 μM; RPE microsomes
T1 construct: incubated with RPF microsomes that served as a source of LRAT enzymatic activity; from tissue; host or cells: bovine retinal pigment epithelium (RPE) microsomes
T1 sequence (Q9BGL2 1-230): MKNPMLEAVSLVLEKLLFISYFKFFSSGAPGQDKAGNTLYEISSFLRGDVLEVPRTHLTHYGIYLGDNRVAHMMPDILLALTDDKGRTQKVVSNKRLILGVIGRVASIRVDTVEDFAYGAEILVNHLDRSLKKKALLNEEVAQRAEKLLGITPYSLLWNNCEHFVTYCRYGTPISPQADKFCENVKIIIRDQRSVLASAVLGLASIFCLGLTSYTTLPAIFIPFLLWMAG
Description: (§3) Bovine RPE microsomes were isolated from RPE homogenates by differential centrifugation as previously described. The resulting microsomal precipitate was resuspended in 10 mM Bis-Tris propane/HCl buffer, pH 7.4, to achieve a total protein concentration of […]. Then the mixture was placed in a quartz cuvette and irradiated for 6 min at 4° C. with a ChromatoUVE transilluminator (model TM-15; UVP) to eliminate residual retinoids. After irradiation, DTT was added to the RPE microsomal mixture to achieve a final concentration of 5 mM.
Two μl of a synthesized primary alcohol or amine dissolved in DMF (final concentration 10 μM) and 2 μl of 1,2-diheptanoyl-sn-glicerol-3-phosphocholine (water, final concentration 1 mM) were added to 200 μl of 10 mM Bis-Tris propane/HCl buffer, pH 7.4, containing 150 μg of RPE microsomes and 1% (v/w) BSA. The resulting mixture was incubated at 37° C. for 1 h. The reaction was quenched by adding 300 μl of methanol. Most reaction products were extracted with 300 μl of hexanes, except for products from the QEA-C-006 and QEA-G groups which were extracted by adding 300 μl of ethyl acetate and 300 μl of water.
Reaction products were separated and quantified by normal phase HPLC (Agilent Sil 5 μm, 4.6 mm×250 mm) in stepwise gradient of ethyl acetate in hexanes (0-15 min, 10%; 20-30 min, 30%) at a flow rate of 1.4 ml·min^−1.
The properties of retinoid derivatives were examined by two standard enzymatic tests, the […] and retinoid isomerization assays. To identify substrates of LRAT, aldehydes were reduced by sodium borohydrate to their corresponding primary alcohols that then were directly used in the esterification assay (FIG. 2B).
The alcohols were incubated with RPF microsomes that served as a source of LRAT enzymatic activity. Products of the enzymatic reaction as well as the remaining substrates were extracted with organic solvents and analyzed by HPLC. The ratio between a substrate and its esterified form was used to measure enzymatic activity efficiency, based on equivalent UV absorption of the substrate and product at their specific UV maxim wavelengths. Compounds classified as ‘good’ LRAT substrates converted at least 50% of their available alcohol substrates into corresponding esters under these experimental conditions, whereas marginal LRAT substrates were converted at less than 5%. Alcohols with a 5-50% conversion ratio were classified as weak substrates. Among 35 tested compounds, 23 were categorized as good and 9 as weak substrates; 3 compounds were not esterified by LRAT (Table 1 and FIG. 2C). […] Moreover, breaking double bond conjugation along the polyene chain or deletion of a C9 and/or a C13 methyl group also was allowed.

[3] = Analysis of retinoid composition in mouse tissues: amide forms in liver by HPLC; format: in vivo, mice; conditions: oral gavage; for Protection by amide in liver: 4-week-old Abca4−/−Rdh8−/− mice, dark 24 h, liver extracts by HPLC; for amidation in vivo (accumulation of amide forms in mouse liver): liver HPLC
Description: as §1
Two mg of primary amines were administered by oral gavage to 4-week-old Abca4^−/−Rdh8^−/− mice, which then were kept in the dark for 24 h. Then mice were euthanized, and their livers were homogenized in 1 ml of 10 mM sodium phosphate buffer, pH 7.4, containing 50% methanol (v/v). The resulting mixture was extracted with 4 ml of hexanes. Extracts were dried in vacuo, and reconstituted in 300 μl of hexanes. 100 μl of this solution was analyzed by HPLC as described above for the LRAT activity assay.
as §2

[4] = target: T2, RPE65 (Bos taurus, UniProt Q28175); assay: Retinoid isomerase activity assay (11-cis-retinol production in RPE microsomes); format: biochemical, Bovine; conditions: for IC50: primary amine, decline in 11-cis-retinol production in RPE microsomes, read-out: Inhibition of RPE65
T2 construct: from tissue; host or cells: bovine retinal pigment epithelium (RPE) microsomes
Description: as §3
[…] The resulting mixture was pre incubated at room temperature for 5 min. Then 1 μl of all-trans-retinol (in DMF, final concentration 20 μM) was added. The resulting mixture was incubated at 37° C. for 15 min to 2 h. The reaction was quenched by adding 300 μl of methanol, and products were extracted with 300 μl of hexanes. Production of 11-cis-retinol was quantified by normal phase HPLC with 10% (v/v) ethyl acetate in hexanes as the eluent at a flow rate of 1.4 ml·min^−1. Retinoids were detected by monitoring their absorbance at 325 nm and quantified based on a standard curve representing the relationship between the amount of 11-cis-retinol and the area under the corresponding chromatographic peak.
Primary amines of compounds derived from the aldehydes were subsequently tested for their ability to inhibit the RPE65-dependent retinoid isomerization reaction in dose- and time dependent reactions as exemplified by QEB-B-001 (FIG. 3B). Amines were incubated with RPE microsomes in the presence of all-trans-retinol and the 11-cis-retinoid binding protein, CRALBP.
Progress of the enzymatic reaction was monitored by HPLC separation of retinoids and quantification of 11-cis-retinol with a decrease of 11-cis-retinol production reflecting inhibition of RPE65 by a tested amine. […] This moderate inhibition could be enhanced by shortening the polyene chain length (TEA amines) or diminished by introducing an extra positive charge into the tested compounds (QEA-G amines).

T2 sequence (Q28175 whole entry): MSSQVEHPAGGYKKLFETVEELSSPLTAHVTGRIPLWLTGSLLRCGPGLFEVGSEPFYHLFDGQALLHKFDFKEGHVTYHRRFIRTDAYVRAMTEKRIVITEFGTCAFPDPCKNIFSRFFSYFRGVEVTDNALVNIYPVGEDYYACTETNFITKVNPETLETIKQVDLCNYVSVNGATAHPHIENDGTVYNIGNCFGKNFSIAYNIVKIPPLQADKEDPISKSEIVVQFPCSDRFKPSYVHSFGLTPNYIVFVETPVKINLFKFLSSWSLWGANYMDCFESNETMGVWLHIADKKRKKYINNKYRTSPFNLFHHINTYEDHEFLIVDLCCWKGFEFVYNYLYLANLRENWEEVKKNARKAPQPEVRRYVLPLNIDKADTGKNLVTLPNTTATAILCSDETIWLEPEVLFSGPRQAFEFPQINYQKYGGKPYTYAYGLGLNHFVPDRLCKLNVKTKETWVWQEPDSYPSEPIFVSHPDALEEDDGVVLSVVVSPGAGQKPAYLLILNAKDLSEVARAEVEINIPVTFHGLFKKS

Compound | Toxicity [1] | LRAT Substrate [2] | Protection by amide in liver [3] | amidation in vivo (accumulation of amide forms in mouse liver) [3] | inhibition of RPE65 [4] | IC50 [4]
CC(/C=C/C=C(/c1ccc2ccccc2c1)C(C)(C)C)=C\CN [TEA-C-002-NH2] | Yes | 20% | Strong | efficiently converted into amides | did not inhibit | > 200 µM
CC1=C(/C=C/C(=C/C=C/C(C)=C/CN)C(C)(C)C)CCCC1 [QEA-B-002-NH2] | None | 30% | None | not efficiently amidated | did not inhibit | > 200 µM
CC1=C(/C=C/C(C)=C/C=C/CN)C(C)(C)CCC1O (centres unmarked) [TEA-A-004-NH2] |  | 90% |  |  |  | < 10 µM
CC(/C=C/C=C(/C=C/c1ccccc1)C(C)(C)C)=C\CN [QEA-C-001-NH2] | Yes | 50% | Strong | efficiently converted into amides | did not inhibit | > 200 µM
CC1=C(/C=C/C(C)=C/C=C/C(C)=C/CN)C(C)(C)CCC1O (centres unmarked) [QEA-A-002-NH2] |  | 100% |  |  |  | < 10 µM
COc1ccc(C(=C\C=C\C(C)=C\CN)/C=C/c2cccnc2)cc1 [QEA-G-002-NH2] |  | 100% |  |  |  | 10 to 100 µM
CC(C)(C)C(=C\C=C\CN)/C=C/c1ccc2c(c1)CCCC2 [TEA-C-001-NH2] |  | 0% |  |  |  | 
CC1=C(/C=C/C(C)=C/C=C/C=C/CN)C(C)(C)CCC1 [QEA-A-004-NH2] |  | 100% |  |  |  | < 10 µM
CC(/C=C/C=C(/C=C/c1ccc(Cl)cc1)c1ccccc1)=C\CN [QEA-C-004-NH2] |  | 100% |  |  |  | > 200 µM
CC(C)(C)C(=C\CN)/C=C/C=C(/C=C/C1=CCCCC1)C(C)(C)C [QEA-B-005-NH2] |  | 0% |  |  |  | 
CC1=C(/C=C/C(C)=C/C=C/CN)C(C)(C)CCC1 [TEA-A-001-NH2] |  | 100% |  |  |  | < 10 µM
CC1=C(/C=C/C(C)=C/C=C/C(C)=C/C=C/CN)C(C)(C)CCC1 [PEA-A-001-NH2] |  | 100% |  |  |  | < 10 µM
CC(C)(C)C(=C\C=C\CN)/C=C/C1=CCCCC1 [TEA-B-002-NH2] | Yes | 10% | None | not efficiently amidated | did not inhibit | > 200 µM
CC1=C(/C=C/C(=C/C=C/C(C)=C/CN)C(C)(C)C)C(C)(C)CCC1 [QEA-B-003-NH2] | None | 100% | Weak | not efficiently amidated |  | 10 to 100 µM
CC1=C(/C=C/C(C)=C/C=C/CN)C(C)(C)CC=C1 [TEA-A-002-NH2] |  | 100% |  |  |  | < 10 µM
COc1ccc(C(=C\C=C\C(C)=C\CN)/C=C/c2ccc([N+](=O)[O-])cc2)cc1 [QEA-C-005-NH2] |  | 100% |  |  |  | > 200 µM
CC(/C=C/C=C(/C=C/C1=CCCCC1)c1ccccc1)=C\CN [QEA-E-001-NH2] |  | 100% |  |  |  | > 200 µM
CC1=C(/C=C/C(=C/C=C/CN)C(C)(C)C)C(C)(C)CCC1 [TEA-B-001-NH2] |  | 100% |  |  |  | > 200 µM
CC(/C=C/C=C1/C=C(C2=CCCCC2)CCC1)=C\CN [QEA-D-001-NH2] |  | 100% |  |  |  | > 200 µM
NC/C=C/C=C(/C=C/C1=CCCCC1)c1ccccc1 [TEA-B-004-NH2] |  | 30% |  |  |  | > 200 µM
CC1=C(/C=C/C(C)=C/C=C/C(C)=C/C=C/CN)C(C)(C)CC(O)C1 (centres unmarked) [PEA-A-003-NH2] |  | 90% |  |  |  | < 10 µM
CC(/C=C/C=C(/C=C/c1ccc2c(c1)CCCC2)C(C)(C)C)=C\CN [QEA-C-002-NH2] |  | 15% |  |  |  | > 200 µM
CC(/C=C/C=C1/C=C(c2cccnc2)CCC1)=C\CN [QEA-G-001-NH2] |  | 100% |  |  |  | 10 to 100 µM
CC1=C(/C=C/C(=C/C=C/C(=C/CN)C(C)(C)C)C(C)(C)C)C(C)(C)CCC1 [QEA-B-004-NH2] |  | 0% |  |  |  | 
CC1=C(/C=C/C(=C/C=C/CN)C(C)(C)C)CCCC1 [TEA-B-003-NH2] |  | 20% |  |  |  | > 200 µM
CC1=C(/C=C/C(C)=C/C=C/C(C)=C/CN)C(C)(C)CC(O)C1 (centres unmarked) [QEA-A-003-NH2] |  | 100% |  |  |  | < 10 µM
CC1=C(/C=C/C(C)=C/C=C/CN)C(C)(C)CC(O)C1 (centres unmarked) [TEA-A-003-NH2] |  | 90% |  |  |  | < 10 µM
CC(/C=C/C=C1/C=C(C2=COCCC2)CCC1)=C\CN [QEA-D-002-NH2] |  | 100% |  |  |  | > 200 µM
CC1=C(/C=C/C(C)=C/C=C/C(C)=C/C=C/CN)C(C)(C)CCC1O (centres unmarked) [PEA-A-002-NH2] |  | 90% |  |  |  | < 10 µM
